Experimental findings from patent US10246456B2, “IRAK4 inhibiting agents” (BIOGEN MA INC., priority 2014, dated 2019) are described below.

The target in one experiment is IRAK4 (Homo sapiens (Human), UniProt Q9NWZ3). In words: IRAK-4 AlphaScreen biochemical kinase assay. Conditions: 1 nM IRAK4, 1 mM ATP, 3.5 h at RT. The method, boiled down: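 AlphaScreen read-out: streptavidin beads bind the biotinylated peptide and protein A beads bind the anti-phosphothreonine antibody, so energy transfer reports phosphorylation of the peptide. The kinase is human IRAK-4.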
In general terms: Bead proximity is the source of the signal in Alpha formats.

A further experiment has as its system IL-6 in A549 cells. In words: Cell-based IL-6 ELISA assay in IL-1beta stimulated A549 cells. The following applies: 2 ng/ml human IL-1beta overnight. On the procedure: The cell-based assays is based on IL-6 ELISA quantification. Briefly, A549 cells are cultured in DMEM with 10% FBS medium. When cells reach 80% confluence they are trypsin treated and seeded 180 ul/well in 96-well plate at 2.5×10^4 cells/well. Then, 20 ul of compound serial dilutions (starting at 10 uM, 10 points) are added to the cell plate; incubate for 30 min at 37 C and stimulated with 2 ng/ml human IL-1beta 37 C, 5% CO2 overnight. The next day 100 ul of cell supernatant per well are analyzed on a Human IL-6 Quantikine ELISA kit from R&D Systems.
In general terms: In an ELISA, binding on a coated surface is turned into a signal by an enzyme label.

Sequence of IRAK4 (Q9NWZ3 whole entry, species assumed): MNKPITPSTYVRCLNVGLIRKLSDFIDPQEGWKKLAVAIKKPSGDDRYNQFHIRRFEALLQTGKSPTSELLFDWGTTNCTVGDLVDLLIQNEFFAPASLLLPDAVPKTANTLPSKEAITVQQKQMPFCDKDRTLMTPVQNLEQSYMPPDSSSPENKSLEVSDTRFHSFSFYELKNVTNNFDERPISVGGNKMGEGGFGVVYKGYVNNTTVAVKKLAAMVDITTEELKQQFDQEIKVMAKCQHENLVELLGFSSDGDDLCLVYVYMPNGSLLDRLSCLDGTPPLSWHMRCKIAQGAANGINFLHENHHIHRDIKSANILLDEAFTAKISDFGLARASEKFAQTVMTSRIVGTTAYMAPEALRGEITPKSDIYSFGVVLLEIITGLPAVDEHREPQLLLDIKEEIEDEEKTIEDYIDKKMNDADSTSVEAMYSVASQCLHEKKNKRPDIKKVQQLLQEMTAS

`CC(O)c1cccc(-n2ncc3ccc(-c4cccc([C@H](C)N)n4)cc32)n1` (single isomer, unassigned) [Example 415] had an IC50 against IRAK4 of 0.1 to 1 µM. In the experiment with IL-6 in A549 cells, this compound gave a half-maximal effective concentration (EC50) of no more than 1 µM.

`CC(O)c1cccc(-n2ncc3ccc(-c4cccc([C@H](C)N)n4)cc32)n1` (single isomer, unassigned) [Example 416]: the IC50 against IRAK4 was less than 0.1 µM. In the experiment with IL-6 in A549 cells, this compound registered an EC50 of no more than 1 µM.

Take `CCC[C@H](N)c1cccc(-c2ccc3cnn(-c4cccc(C(C)O)n4)c3c2)n1` (single isomer, unassigned) [Example 418]: on IRAK4, the half-inhibitory concentration (IC50) is less than 0.1 µM. In the experiment with IL-6 in A549 cells, this compound showed a concentration giving a half-maximal response (EC50) of no more than 1 µM.

Regarding `CCCC(N)c1cccc(-c2ccc3cnn(-c4cccc(C(F)F)n4)c3c2)n1` (stereo in doubt) [Example 519, (S)-1-(6-(1-(6-(difluoromethyl)pyridin-2-yl)-1H-indazol-6-yl)pyridin-2-yl)butan-1-amine], the IC50 on IRAK4 is less than 0.1 µM. The compound also had a concentration for a half-maximal effect (EC50) with IL-6 in A549 cells of no more than 1 µM.

The compound `CC(N)c1cccc(-c2ccc3cnn(-c4cccc(C(F)F)n4)c3c2)n1` (stereo in doubt) [Example 529, (S)-1-(6-(1-(6-(difluoromethyl)pyridin-2-yl)-1H-indazol-6-yl)pyridin-2-yl)ethanamine] came in with an IC50 against IRAK4 of less than 0.1 µM. Moreover, in the experiment on IL-6 in A549 cells, the EC50 was no more than 1 µM.

For the compound `CCC[C@H](N)c1cccc(-c2cc(N3CCCCC3)c3cnn(-c4cccc(CO)n4)c3c2)n1` [Example 324, (S)-(6-(6-(6-(1-aminobutyl)pyridin-2-yl)-4-(piperidin-1-yl)-1H-indazol-1-yl)pyridin-2-yl)methanol], the concentration giving a half-maximal response (EC50) in the experiment on IL-6 in A549 cells is no more than 1 µM.

Consider `CCC[C@H](N)c1cccc(-c2cc(N3CCC(O)C3)c3cnn(-c4cccc(CO)n4)c3c2)n1` (stereo partly drawn) [Example 325, 1-(6-(6-((S)-1-aminobutyl)pyridin-2-yl)-1-(6-(hydroxymethyl)pyridin-2-yl)-1H-indazol-4-yl)pyrrolidin-3-ol], for which the IC50 against IRAK4 is less than 0.1 µM. In the experiment with IL-6 in A549 cells, the half-maximal effective concentration (EC50) was no more than 1 µM.

`CCC[C@H](N)c1cccc(-c2cc(N3CCCC3CO)c3cnn(-c4cccc(CO)n4)c3c2)n1` (stereo partly drawn) [Example 326, (1-(6-(6-((S)-1-aminobutyl)pyridin-2-yl)-1-(6-(hydroxymethyl)pyridin-2-yl)-1H-indazol-4-yl)pyrrolidin-2-yl)methanol] showed an IC50 against IRAK4 of less than 0.1 µM. In the experiment with IL-6 in A549 cells, the half-maximal effective concentration (EC50) was no more than 1 µM.

With `CCC[C@H](N)c1cccc(-c2cc(NC)c3cnn(-c4cccc(CO)n4)c3c2)n1` [Example 327, (S)-(6-(6-(6-(1-aminobutyl)pyridin-2-yl)-4-(methylamino)-1H-indazol-1-yl)pyridin-2-yl)methanol], the half-maximal inhibitory concentration (IC50) at IRAK4 was less than 0.1 µM. The concentration giving a half-maximal response (EC50) with IL-6 in A549 cells was no more than 1 µM.

As to `CCC[C@H](N)c1cccc(-c2cc(NCC)c3cnn(-c4cccc(CO)n4)c3c2)n1` [Example 328, (S)-(6-(6-(6-(1-aminobutyl)pyridin-2-yl)-4-(ethylamino)-1H-indazol-1-yl)pyridin-2-yl)methanol], the half-maximal inhibitory concentration (IC50) against IRAK4 was less than 0.1 µM. The EC50 in the experiment with IL-6 in A549 cells is no more than 1 µM.

For the compound `CCC[C@H](N)c1cccc(-c2cc(N3CCC(O)CC3)c3cnn(-c4cccc(CO)n4)c3c2)n1` [Example 329, (S)-1-(6-(6-(1-aminobutyl)pyridin-2-yl)-1-(6-(hydroxymethyl)pyridin-2-yl)-1H-indazol-4-yl)piperidin-4-ol], on IRAK4, the 50% inhibitory concentration (IC50) was less than 0.1 µM. The half-maximal effective concentration (EC50) in the experiment with IL-6 in A549 cells was no more than 1 µM.

For the compound `CCC[C@H](N)c1cccc(-c2cc(N3CCOCC3)c3cnn(-c4cccc(CO)n4)c3c2)n1` [Example 339, (S)-(6-(6-(6-(1-aminobutyl)pyridin-2-yl)-4-morpholino-1H-indazol-1-yl)pyridin-2-yl)methanol], the EC50 in the experiment on IL-6 in A549 cells was no more than 1 µM.

`CCC[C@H](N)c1cccc(-c2cc(N3CCC3)c3cnn(-c4cccc(CO)n4)c3c2)n1` [Example 345, (S)-(6-(6-(6-(1-aminobutyl)pyridin-2-yl)-4-(azetidin-1-yl)-1H-indazol-1-yl)pyridin-2-yl)methanol]: the 50% effective concentration (EC50) in the experiment on IL-6 in A549 cells was no more than 1 µM.

The compound `CCc1cccc(-c2cc(-c3nnc(C)o3)c3cnn(-c4cccc(CO)n4)c3c2)n1` [Example 358, (6-(6-(6-ethylpyridin-2-yl)-4-(5-methyl-1,3,4-oxadiazol-2-yl)-1H-indazol-1-yl)pyridin-2-yl)methanol] gave an EC50 with IL-6 in A549 cells of no more than 1 µM.

Take `CCC[C@H](N)c1cccc(-c2cc(C3=CCN(C)CC3)c3cnn(-c4cccc(CO)n4)c3c2)n1` [Example 423, (S)-(6-(6-(6-(1-aminobutyl)pyridin-2-yl)-4-(1-methyl-1,2,3,6-tetrahydropyridin-4-yl)-1H-indazol-1-yl)pyridin-2-yl)methanol]: in the experiment with IL-6 in A549 cells, the EC50 is no more than 1 µM.

As to `C[C@H](N)c1cccc(-c2cc(F)c3cnn(-c4cccc(CO)n4)c3c2)n1` [Example 475, (6-{6-[6-((S)-1-Amino-ethyl)-pyridin-2-yl]-4-fluoro-indazol-1-yl}-pyridin-2-yl)-methanol], the EC50 in the experiment with IL-6 in A549 cells was no more than 1 µM.

Compound `CCC(O)C(N)c1cccc(-c2ccc3cnn(-c4cccc(CO)n4)c3c2)n1` (stereo not drawn) [Example 516, 1-amino-1-(6-(1-(6-(hydroxymethyl)pyridin-2-yl)-1H-indazol-6-yl)pyridin-2-yl)butan-2-ol] gave a half-maximal effective concentration (EC50) in the experiment on IL-6 in A549 cells of no more than 1 µM.

The compound `CC(O)CC(N)c1cccc(-c2ccc3cnn(-c4cccc(CO)n4)c3c2)n1` (stereo not drawn) [Example 525, 4-amino-4-(6-(1-(6-(hydroxymethyl)pyridin-2-yl)-1H-indazol-6-yl)pyridin-2-yl)butan-2-ol] showed a half-maximal effective concentration (EC50) in the experiment with IL-6 in A549 cells of no more than 1 µM.

The compound `CCC[C@@H](N)c1ccnc(-c2cc(OCC)c3cnn(-c4cccc(CO)n4)c3c2)n1` [Example 584, (R)-(6-(6-(4-(1-aminobutyl)pyrimidin-2-yl)-4-ethoxy-1H-indazol-1-yl)pyridin-2-yl)methanol] yielded an IC50 on IRAK4 of less than 0.1 µM.

Compound `CCC[C@H](N)c1cccc(-c2cc(C(CO)CCl)c3cnn(-c4cccc(CO)n4)c3c2)n1` (stereo partly drawn) [Example 585, 2-(6-(6-((S)-1-aminobutyl)pyridin-2-yl)-1-(6-(hydroxymethyl)pyridin-2-yl)-1H-indazol-4-yl)-3-chloropropan-1-ol] had an IC50 against IRAK4 of 0.1 to 1 µM.

`COCCOc1cc(-c2cccc([C@H](C)N)n2)cc2c1cnn2-c1cccc(CO)n1` [Example 586, (S)-(6-(6-(6-(1-aminoethyl)pyridin-2-yl)-4-(2-methoxyethoxy)-1H-indazol-1-yl)pyridin-2-yl)methanol] returned a 50% inhibitory concentration (IC50) at IRAK4 of less than 0.1 µM.

Consider `CC[C@H](N)c1cccc(-c2cc(OCCOC)c3cnn(-c4cccc(CO)n4)c3c2)n1` [Example 587, (S)-(6-(6-(6-(1-aminopropyl)pyridin-2-yl)-4-(2-methoxyethoxy)-1H-indazol-1-yl)pyridin-2-yl)methanol], for which the half-maximal inhibitory concentration (IC50) at IRAK4 was less than 0.1 µM.

`COCCOc1cc(-c2cccc([C@@H](N)C3CC3)n2)cc2c1cnn2-c1cccc(CO)n1` [Example 588, (S)-(6-(6-(6-(amino(cyclopropyl)methyl)pyridin-2-yl)-4-(2-methoxyethoxy)-1H-indazol-1-yl)pyridin-2-yl)methanol]: the IC50 on IRAK4 is less than 0.1 µM.

For `N[C@@H](CF)c1cccc(-c2ccc3cnn(-c4cccc(CO)n4)c3c2)n1` [Example 589, (R)-(6-(6-(6-(1-amino-2-fluoroethyl)pyridin-2-yl)-1H-indazol-1-yl)pyridin-2-yl)methanol], at IRAK4, the IC50 was less than 0.1 µM.

Take `CCC[C@H](N)c1cccc(-c2ccc3cnn(-c4cncc(C)n4)c3c2)n1` [Example 590, (S)-1-(6-(1-(6-methylpyrazin-2-yl)-1H-indazol-6-yl)pyridin-2-yl)butan-1-amine]: at IRAK4, the half-inhibitory concentration (IC50) was less than 0.1 µM.

Regarding `N#CC[C@H](N)c1cccc(-c2ccc3cnn(-c4cccc(CO)n4)c3c2)n1` [Example 591, (S)-3-amino-3-(6-(1-(6-(hydroxymethyl)pyridin-2-yl)-1H-indazol-6-yl)pyridin-2-yl)propanenitrile], on IRAK4, the half-inhibitory concentration (IC50) was less than 0.1 µM.

As to `N#CCC[C@H](N)c1cccc(-c2ccc3cnn(-c4cccc(CO)n4)c3c2)n1` [Example 592, (S)-4-amino-4-(6-(1-(6-(hydroxymethyl)pyridin-2-yl)-1H-indazol-6-yl)pyridin-2-yl)butanenitrile], the IC50 on IRAK4 is less than 0.1 µM.

For the compound `COCCOc1cc(-c2cccc([C@@H](N)CF)n2)cc2c1cnn2-c1cccc(CO)n1` [Example 594, (R)-(6-(6-(6-(1-amino-2-fluoroethyl)pyridin-2-yl)-4-(2-methoxyethoxy)-1H-indazol-1-yl)pyridin-2-yl)methanol], the IC50 on IRAK4 was less than 0.1 µM.

`CCC[C@H](N)c1ccnc(-c2cc(OCCOC)c3cnn(-c4cccc(CO)n4)c3c2)n1` [Example 595, (S)-(6-(6-(4-(1-aminobutyl)pyrimidin-2-yl)-4-(2-methoxyethoxy)-1H-indazol-1-yl)pyridin-2-yl)methanol] had an IC50 against IRAK4 of less than 0.1 µM.

`CCC[C@@H](N)c1ccnc(-c2cc(OCCOC)c3cnn(-c4cccc(CO)n4)c3c2)n1` [Example 596, (R)-(6-(6-(4-(1-aminobutyl)pyrimidin-2-yl)-4-(2-methoxyethoxy)-1H-indazol-1-yl)pyridin-2-yl)methanol]: the concentration for half-maximal inhibition (IC50) against IRAK4 is less than 0.1 µM.

On IRAK4, `CCC[C@H](N)c1cccc(-c2cc(C3CCOC3)c3cnn(-c4cccc(CO)n4)c3c2)n1` (stereo partly drawn) [Example 597, (6-(6-(6-((S)-1-aminobutyl)pyridin-2-yl)-4-(tetrahydrofuran-3-yl)-1H-indazol-1-yl)pyridin-2-yl)methanol] had an IC50 of less than 0.1 µM.

As to `CCC[C@H](N)c1cccc(-c2cc(OCC3CC(F)(F)C3)c3cnn(-c4cccc(CO)n4)c3c2)n1` [Example 598, (S)-(6-(6-(6-(1-aminobutyl)pyridin-2-yl)-4-((3,3-difluorocyclobutyl)methoxy)-1H-indazol-1-yl)pyridin-2-yl)methanol], the IC50 at IRAK4 is less than 0.1 µM.

Broadly, the IC50 is the point on the concentration scale where inhibition reaches its midpoint. For orientation: EC50 means the concentration giving half of the maximal effect. A high value points to a less potent agent.
